The target in data set [1] is T1, Sphingosine kinase 2 (Homo sapiens, UniProt Q9NRA0).
T1 sequence (Q9NRA0 whole entry): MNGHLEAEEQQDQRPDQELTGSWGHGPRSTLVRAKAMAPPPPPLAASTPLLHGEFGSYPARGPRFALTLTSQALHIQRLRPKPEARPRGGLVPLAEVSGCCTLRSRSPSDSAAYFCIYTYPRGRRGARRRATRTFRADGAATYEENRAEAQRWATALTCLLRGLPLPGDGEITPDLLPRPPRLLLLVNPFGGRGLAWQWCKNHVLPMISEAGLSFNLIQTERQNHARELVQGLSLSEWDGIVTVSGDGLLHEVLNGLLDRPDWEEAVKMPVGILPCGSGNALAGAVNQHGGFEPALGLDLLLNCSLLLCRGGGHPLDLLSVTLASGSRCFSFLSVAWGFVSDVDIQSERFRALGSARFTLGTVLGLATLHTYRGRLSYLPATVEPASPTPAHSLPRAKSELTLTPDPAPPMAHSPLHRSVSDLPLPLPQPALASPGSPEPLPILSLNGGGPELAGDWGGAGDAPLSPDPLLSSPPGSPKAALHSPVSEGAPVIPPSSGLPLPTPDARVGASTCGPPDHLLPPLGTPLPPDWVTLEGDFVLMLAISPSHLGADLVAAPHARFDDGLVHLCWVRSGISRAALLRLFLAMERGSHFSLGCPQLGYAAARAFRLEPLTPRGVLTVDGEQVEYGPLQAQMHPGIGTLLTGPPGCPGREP
The experiment in a line: biochemical.
Description: Inhibition of human recombinant SphK2 expressed in Sf9 cells assessed as radiolabeled products using 10 uM sphingosine and 10 uM gamma[32P]ATP by liquid scintillation counting

The target of data set [2] is T2, Sphingosine kinase 2 (Homo sapiens) (UniProt Q9NRA0).
T2 sequence (whole entry): T1 sequence (Q9NRA0 whole entry)
To be noted: U-937, 3 uM.
Description: Inhibition of SphK2 in human U937 cells assessed as decrease in phosphorylated FTY720 substrate at 3 uM after 2 hrs incubation by LC-MS-MS analysis

The subject of data set [3] is U-937. Briefly: Reduction in S1P level in human U937 cells at 100 nM to 1 uM after 2 hrs incubation by LC-MS-MS analysis. The class given is functional, cell-based.
Data set [4] relates to Mus musculus. Briefly: Increase in Sph level in C57BL6/j mouse blood at 10 mg/kg, ip up to 8 hrs by LC-MS-MS analysis relative to control. Type of data set: functional, organism-based. The arrangement: dose 10 mg/kg.
Data set [5] is described as follows: Drug uptake in human U937 cells assessed as accumulation in cells at 100 nM to 1 uM after 2 hrs incubation by LC-MS-MS analysis. The class given is ADME, cell-based. The settings on record: u-937, 2 h, 0.1 µM.
Data set [6] is described as follows: Cytotoxicity against human U937 cells assessed as cell viability up to 3 uM after 24 hrs by trypan blue dye assay. The class given is cell-based. The settings on record: u-937, 24 h.
Data set [7] has as its system Mus musculus. Briefly: Increase in S1p level in C57BL6/j mouse blood at 10 mg/kg, ip up to 8 hrs by LC-MS-MS analysis relative to control. The settings on record: route intraperitoneal. The class given is functional.
Data set [8] addresses T2, Sphingosine kinase 2 (Homo sapiens). The experiment in a line: Inhibition of human recombinant SphK2 expressed in Sf9 cells assessed as enzyme activity measured as radiolabeled products using 10 uM sphingosine and 10 uM gamma[32P]ATP at 1 uM by liquid scintillation counting. More on the design: scale not given: the % may be the effect or the level left.
Data set [9] relates to U-937. Briefly: Increase in sphingosine level in human U937 cells at 100 nM to 1 uM after 2 hrs incubation by LC-MS-MS analysis. Type of data set: functional, cell-based.
The nature of data set [10]: in vivo. To be noted: mouse, ip, 10 mg/kg.
Description: Half life in mouse at 10 mg/kg, ip
The subject of data set [11] is U-937. The experiment in a line: Decrease in S1P level in human U937 cells at 100 nM after 2 hrs incubation by LC-MS-MS analysis.
A short description of data set [12]: Half life in rat. Type of data set: ADME, organism-based. The settings on record: in vivo.

Activity calls are given as the source filed them. The rule behind the calls is not given here. Some results are limits rather than exact numbers.

As usually defined, the Ki is the equilibrium dissociation constant of an inhibitor or competing ligand from its target. As usually defined, the half-life is how long it takes for the measured level to halve. The term Inhibition denotes the relative decrease from the control value, in per cent.

In data set [1], `Oc1ccc(Nc2nc(-c3ccc(Cl)cc3)cs2)cc1` returned a Ki of 50 µM.
For `CCCCCCCCc1ccc(-c2noc([C@@H]3CCN3C(=N)N)n2)cc1.Cl`, the inhibition entry in [2] and in data set [3] was “Active” each time. Also, the outcome in data set [4] and in [9] was Active. The Drug uptake result in [5] is “Active”. Besides, the Activity result was “Non-toxic” in [6] and 56% in data set [8]. The “fold change (FC)” value in data set [7] amounted to 2. Also, in data set [1], the Ki was 1.2 µM.
`CCCCCCCCc1ccc(-c2noc([C@@H]3C=CCN3C(=N)N)n2)cc1`: the Activity in [8] was found to be 96%.
Same read-out and setting: the result for `CCCCCCCCc1ccc(-c2nnc([C@@H]3CCCN3C(=N)N)o2)cc1` reads 91%; that for `CCCCCCCCc1ccc(-c2noc(C3CN(C(=N)N)C3)n2)cc1`, 96%; that for `CCCCCCCCc1ccc(-c2noc([C@@H]3[C@@H](O)CCN3C(=N)N)n2)cc1`, 65%.
Consider `CCCCCCCCc1ccc(-c2noc([C@H](C)NC(=N)N)n2)cc1`, for which the Activity in data set [8] is 94%.
The same measure, in the same setting: the result for `CCCCCCCCc1ccc(-c2noc([C@@H]3CCCCN3C(=N)N)n2)cc1` reads 92%; that for `CCCCCCCCc1ccc(-c2noc(C3(NC(=N)N)CC3)n2)cc1`, 98%.
As for `CCCCCCCCc1ccc(-c2noc([C@@H]3CCCN3C(=N)N)n2)cc1.Cl`, the Activity in data set [8] is 44%. For the same compound, the Ki in data set [1] stood at 1.3 µM.
On to `CCCCCCCCc1ccc(CNC(=O)[C@@H]2CCCN2C(=N)N)cc1`, for which the Activity in [8] worked out at 95%.
`OC[C@H]1C[C@@H](O)CCN1CCc1ccc(Nc2nc(-c3ccc(C(F)(F)F)cc3)cs2)cc1` showed a half-life in data set [10] of 6.5 h.
For `CCCCCCCCc1ccc(-c2noc([C@@H]3CCN(C(=N)N)C3)n2)cc1`, the Activity in data set [8] turned out to be 95%.
On the same count and under the same terms, the value for `CCCCCCCCCCc1ccc(NC(=O)[C@H]2CCCN2C(=N)N)cc1` was 100%.
`CCCCCCCCc1ccc(-c2noc(C[C@@H]3CCCN3C(=N)N)n2)cc1.Cl`: the Inhibition in data set [11] amounted to 90%. For the same compound, in [3], the inhibition result was “Active”. Also, the Drug uptake result in data set [5] was “Active”.
As for `CCCCCCCCc1ccc(-c2noc(CC[C@@H]3CCCN3C(=N)N)n2)cc1`, the Activity in data set [8] turned out to be 100%.
In [1], `CCCCCc1ccc(/C=C/[C@H](O)[C@@H](CO)NC)cc1` yielded a Ki above 100 µM.
As to `CCCCCCCCc1ccc(-c2noc([C@H]3CCCN3C(=N)N)n2)cc1`, in data set [8], the Activity amounted to 90%.
On the same count and under the same terms, the value for `CCCCCCCCc1ccc(-c2noc([C@H](CO)NC(=N)N)n2)cc1` was 99%; that for `CCCCCCCCc1ccc(-c2noc([C@@H](NC(=N)N)C(C)C)n2)cc1` was 85%.
Same read-out and setting: the value for `CCCCCCCCc1ccc(-c2noc([C@@H]3C[C@H](O)CN3C(=N)N)n2)cc1` was 90%.
On the same count and under the same terms, the result for `CCCCCCCCc1ccc(-c2noc(CNC(=N)N)n2)cc1` reads 90%.
Take `CCCCCCCCc1ccc(-c2noc(CN(C)C(=N)N)n2)cc1`: the Activity in data set [8] was 90%.
As to `CCCCCCCCc1ccc(-c2nc([C@@H]3CCCN3C(=N)N)no2)cc1`, the Activity in data set [8] stood at 42%. For the same compound, the inhibition constant (Ki) in [1] was found to be 1.1 µM.
On to `CCCCCCCCc1ccc(CC[C@](N)(CO)COC)cc1`, for which affinity in [1] was put at a Ki of 16.5 µM.
For `CCCCCCCCCCc1ccc(NC(=O)[C@@H]2CCCN2C(=N)N)cc1`, in [8], the Activity worked out at 83%.
On the same count and under the same terms, the value for `CCCCCCCCc1ccc(C(=O)NC[C@@H]2CCCN2C(=N)N)cc1` was 75%.
In [12], `C[C@@H](NC(=O)[C@H]1NCC[C@@H]1O)c1ccc(-c2noc(CCC3CCCC3)n2)cc1` gave a half-life of 4.3 h.
Consider `CCCCCCCCc1ccc(-c2noc([C@@H]3C[C@@H](O)CN3C(=N)N)n2)cc1`, for which the Activity in data set [8] worked out at 70%. The same compound gave a Ki in [1] of 5.2 µM.

(Values after ChEMBL document CHEMBL3414421, “Structure-activity relationship studies and in vivo activity of guanidine-based sphingosine kinase inhibitors: discovery of SphK1- and SphK2-selective inhibitors” (J Med Chem, 2015).)
